Laboratory results taken from article PMC5218480 (PLoS ONE, 2017).

Test system: MV-4-11 cells
Assay: Gene expression microarray analysis (Affymetrix PrimeView) and GSEA
Type: cell-based, human
Design: RFU PODN (11730768_x_at) / Fold change /veh PODN (11730768_x_at) / RFU LINC00158 (11744669_a_at) / Fold change /veh LINC00158 (11744669_a_at) / RFU DUSP10 (11751237_a_at) / Fold change /veh DUSP10 (11751237_a_at) / RFU ID3 (11757404_x_at) / Fold change /veh ID3 (11757404_x_at) / RFU PLEKHG5 (11737974_s_at) / Fold change /veh PLEKHG5 (11737974_s_at) / RFU LRRC4B (11730491_at) / Fold change /veh LRRC4B (11730491_at) / RFU GIMAP4 (11747438_a_at) / Fold change /veh GIMAP4 (11747438_a_at) / RFU KRT8 (11758183_x_at) / Fold change /veh KRT8 (11758183_x_at) / RFU CNN1 (11734310_a_at) / Fold change /veh CNN1 (11734310_a_at) / RFU VPS37D (11726825_at) / Fold change /veh VPS37D (11726825_at) / RFU C10orf10 (11716522_x_at) / Fold change /veh C10orf10 (11716522_x_at) / RFU KIR2DL2 /// KIR2DL4 /// KIR2DL5A /// KIR2DL5B /// KIR2DS1 /// KIR2DS2 /// KIR2DS3 /// KIR2DS4 /// KIR3DL3 /// KIR3DL3 /// KIR3DS1 (11738374_at) / Fold change /veh KIR2DL2 /// KIR2DL4 /// KIR2DL5A /// KIR2DL5B /// KIR2DS1 /// KIR2DS2 /// KIR2DS3 /// KIR2DS4 /// KIR3DL3 /// KIR3DL3 /// KIR3DS1 (11738374_at) / RFU C1QL1 (11718748_at) / Fold change /veh C1QL1 (11718748_at) / RFU TMPRSS4 (11747572_a_at) / Fold change /veh TMPRSS4 (11747572_a_at) / RFU HAMP (11756126_x_at) / Fold change /veh HAMP (11756126_x_at) / RFU RNFT2 (11725882_a_at) / Fold change /veh RNFT2 (11725882_a_at) / RFU NR4A2 (11747474_a_at) / Fold change /veh NR4A2 (11747474_a_at) / RFU ABCC12 (11746883_a_at) / Fold change /veh ABCC12 (11746883_a_at) / RFU TMEM136 (11760407_x_at) / Fold change /veh TMEM136 (11760407_x_at) / RFU CLDN22 /// WWC2 (11732394_at) / Fold change /veh CLDN22 /// WWC2 (11732394_at) / RFU HLA-DPB1 (11760878_x_at) / Fold change /veh HLA-DPB1 (11760878_x_at) / RFU SPINT1 (11716480_a_at) / Fold change /veh SPINT1 (11716480_a_at) / RFU GAP43 (11754022_s_at) / Fold change /veh GAP43 (11754022_s_at) / RFU A4GNT (11735810_at) / Fold change /veh A4GNT (11735810_at) / RFU PRB3 (11715151_x_at) / Fold change /veh PRB3 (11715151_x_at) / RFU TUBB4B (11761932_at) / Fold change /veh TUBB4B (11761932_at) / RFU CAPN14 (11732068_a_at) / Fold change /veh CAPN14 (11732068_a_at) / RFU TMCC2 (11721928_a_at) / Fold change /veh TMCC2 (11721928_a_at) / RFU IRGQ (11745062_a_at) / Fold change /veh IRGQ (11745062_a_at) / RFU FAM174B (11720279_a_at) / Fold change /veh FAM174B (11720279_a_at) / RFU TMPRSS4 (11748680_a_at) / Fold change /veh TMPRSS4 (11748680_a_at) / RFU FAM212B (11763350_a_at) / Fold change /veh FAM212B (11763350_a_at) / RFU PLEKHG5 (11743358_a_at) / Fold change /veh PLEKHG5 (11743358_a_at) / RFU ZSCAN30 (11745921_a_at) / Fold change /veh ZSCAN30 (11745921_a_at) / RFU CMKLR1 (11741424_a_at) / Fold change /veh CMKLR1 (11741424_a_at) / RFU LOC101060620 /// MAPK8IP1 (11723275_at) / Fold change /veh LOC101060620 /// MAPK8IP1 (11723275_at) / RFU SPTSSB (11747773_x_at) / Fold change /veh SPTSSB (11747773_x_at) / RFU PRSS12 (11739890_at) / Fold change /veh PRSS12 (11739890_at) / RFU BIN1 (11741810_x_at) / Fold change /veh BIN1 (11741810_x_at) / RFU WNT11 (11732464_a_at) / Fold change /veh WNT11 (11732464_a_at) / RFU C10orf10 (11716521_a_at) / Fold change /veh C10orf10 (11716521_a_at) / RFU C5orf56 (11738089_at) / Fold change /veh C5orf56 (11738089_at) / RFU CYB561 (11721691_x_at) / Fold change /veh CYB561 (11721691_x_at) / RFU ANKRD19P (11752326_a_at) / Fold change /veh ANKRD19P (11752326_a_at) / RFU OR2T12 /// OR2T33 /// OR2T8 (11738714_s_at) / Fold change /veh OR2T12 /// OR2T33 /// OR2T8 (11738714_s_at) / RFU VCAN (11748164_a_at) / Fold change /veh VCAN (11748164_a_at) / RFU JSRP1 (11732532_at) / Fold change /veh JSRP1 (11732532_at) / RFU KRTAP10-11 (11738290_x_at) / Fold change /veh KRTAP10-11 (11738290_x_at) / RFU MYO3A (11730013_a_at) / Fold change /veh MYO3A (11730013_a_at) / RFU EBF3 (11725865_a_at) / Fold change /veh EBF3 (11725865_a_at) / RFU CAMK2N1 (11719241_x_at) / Fold change /veh CAMK2N1 (11719241_x_at) / RFU C5orf56 (11738088_a_at) / Fold change /veh C5orf56 (11738088_a_at) / RFU OLFML3 (11715873_a_at) / Fold change /veh OLFML3 (11715873_a_at) / RFU LOC100653217 /// NTM (11731650_a_at) / Fold change /veh LOC100653217 /// NTM (11731650_a_at) / RFU MAPK11 (11762145_a_at) / Fold change /veh MAPK11 (11762145_a_at) / RFU FIZ1 (11724087_x_at) / Fold change /veh FIZ1 (11724087_x_at) / RFU OASL (11726364_x_at) / Fold change /veh OASL (11726364_x_at) / RFU SOX15 (11748057_x_at) / Fold change /veh SOX15 (11748057_x_at) / RFU CD79A (11719716_a_at) / Fold change /veh CD79A (11719716_a_at) / RFU HIST1H1D (11736915_at) / Fold change /veh HIST1H1D (11736915_at) / RFU CASKIN2 (11723855_a_at) / Fold change /veh CASKIN2 (11723855_a_at) / RFU LOC730098 (11760151_x_at) / Fold change /veh LOC730098 (11760151_x_at) / RFU OR4N2 (11742367_at) / Fold change /veh OR4N2 (11742367_at) / RFU PRRT2 (11749266_a_at) / Fold change /veh PRRT2 (11749266_a_at) / RFU SNX32 (11753110_a_at) / Fold change /veh SNX32 (11753110_a_at) / RFU CDHR5 (11726645_a_at) / Fold change /veh CDHR5 (11726645_a_at) / RFU RCAN1 (11760418_a_at) / Fold change /veh RCAN1 (11760418_a_at) / RFU FAM167A (11723789_a_at) / Fold change /veh FAM167A (11723789_a_at) / RFU FAM26E (11764081_at) / Fold change /veh FAM26E (11764081_at) / RFU ISYNA1 (11749810_s_at) / Fold change /veh ISYNA1 (11749810_s_at) / RFU ACY1 (11761880_at) / Fold change /veh ACY1 (11761880_at) / RFU 11764098_at / Fold change /veh 11764098_at / RFU SAMD14 (11745864_x_at) / Fold change /veh SAMD14 (11745864_x_at) / RFU NPB (11741838_a_at) / Fold change /veh NPB (11741838_a_at) / RFU TMPRSS6 (11731388_a_at) / Fold change /veh TMPRSS6 (11731388_a_at) / RFU KRTAP10-2 (11738614_at) / Fold change /veh KRTAP10-2 (11738614_at) / RFU ARHGAP8 /// PRR5-ARHGAP8 (11727945_x_at) / Fold change /veh ARHGAP8 /// PRR5-ARHGAP8 (11727945_x_at) / RFU KRTAP5-7 /// NADSYN1 (11734609_at) / Fold change /veh KRTAP5-7 /// NADSYN1 (11734609_at) / RFU RASL12 (11751679_a_at) / Fold change /veh RASL12 (11751679_a_at) / RFU CDKN2B (11736163_a_at) / Fold change /veh CDKN2B (11736163_a_at) / RFU PRF1 (11729649_at) / Fold change /veh PRF1 (11729649_at) / RFU, ZNF638 /// ZNF638-IT1 / Fold change vs veh, ZNF638 /// ZNF638-IT1 / RFU, PANK3 / Fold change vs veh, PANK3 / RFU, SH3YL1 / Fold change vs veh, SH3YL1 / RFU, ZEB2 / Fold change vs veh, ZEB2 / RFU, NRIP1 / Fold change vs veh, NRIP1 / RFU, PTTG1IP / Fold change vs veh, PTTG1IP / RFU, CAPN2 / Fold change vs veh, CAPN2 / RFU, MED14 / Fold change vs veh, MED14 / RFU, SNORA58 / Fold change vs veh, SNORA58 / RFU, C1orf63 / Fold change vs veh, C1orf63 / RFU, LRRFIP1 / Fold change vs veh, LRRFIP1 / RFU, NDUFAF7 / Fold change vs veh, NDUFAF7 / RFU, SLC12A2 / Fold change vs veh, SLC12A2 / RFU, IBTK / Fold change vs veh, IBTK / RFU, ESF1 / Fold change vs veh, ESF1 / Fold change vs veh, TMEM50B / RFU, TAOK1 / Fold change vs veh, TAOK1 / RFU, ACBD3 / Fold change vs veh, ACBD3 / RFU, TMA16 / Fold change vs veh, TMA16 / RFU, RWDD3 / Fold change vs veh, RWDD3 / RFU, BCAT1 / Fold change vs veh, BCAT1 / RFU, EDEM3 / Fold change vs veh, EDEM3 / RFU, TMEM33 / Fold change vs veh, TMEM33 / RFU, WDR75 / Fold change vs veh, WDR75 / RFU, AHCTF1 / Fold change vs veh, AHCTF1 / RFU, TFRC / Fold change vs veh, TFRC / RFU, ZDHHC17 / Fold change vs veh, ZDHHC17 / RFU, NOM1 / Fold change vs veh, NOM1 / RFU, ARL8B / Fold change vs veh, ARL8B / RFU, ZBTB11 / Fold change vs veh, ZBTB11 / RFU, TAMM41 / Fold change vs veh, TAMM41 / RFU, KIAA1704 /// LOC100996395 / Fold change vs veh, KIAA1704 /// LOC100996395 / RFU, ING1 / Fold change vs veh, ING1 / RFU, TRMT61B / Fold change vs veh, TRMT61B / RFU, FUBP3 / Fold change vs veh, FUBP3 / RFU, TP53 / Fold change vs veh, TP53 / RFU, TNKS2 / Fold change vs veh, TNKS2 / RFU, ZFP14 / Fold change vs veh, ZFP14 / RFU, ACTR2 / Fold change vs veh, ACTR2 / RFU, PPP3R1 / Fold change vs veh, PPP3R1 / RFU, PIK3R1 / Fold change vs veh, PIK3R1 / RFU, HNRNPA1 / Fold change vs veh, HNRNPA1 / RFU, RNF170 / Fold change vs veh, RNF170 / RFU, ZNF28 / Fold change vs veh, ZNF28 / RFU, RNGTT / Fold change vs veh, RNGTT / RFU, OGT / Fold change vs veh, OGT / RFU, BRD1 / Fold change vs veh, BRD1 / RFU, MARS / Fold change vs veh, MARS / RFU, ZNF655 / Fold change vs veh, ZNF655 / RFU, FAHD1 / Fold change vs veh, FAHD1 / RFU, BDP1 / Fold change vs veh, BDP1 / RFU, LRRCC1 / Fold change vs veh, LRRCC1 / RFU, ARID1A / Fold change vs veh, ARID1A / RFU, ZNF146 / Fold change vs veh, ZNF146 / RFU, ZNF330 / Fold change vs veh, ZNF330 / RFU, GPN3 / Fold change vs veh, GPN3 / RFU, C9orf123 / Fold change vs veh, C9orf123 / RFU, N4BP2L2 / Fold change vs veh, N4BP2L2 / RFU, ARFIP1 / Fold change vs veh, ARFIP1 / RFU, FAM179B / Fold change vs veh, FAM179B / RFU, BCL10 / Fold change vs veh, BCL10 / RFU, UHRF1BP1L / Fold change vs veh, UHRF1BP1L / RFU, BET1 / Fold change vs veh, BET1 / RFU, CNOT2 / Fold change vs veh, CNOT2 / RFU, ZNF268 / Fold change vs veh, ZNF268 / Fold change vs veh, ZNF507 / RFU, DGCR2 / Fold change vs veh, DGCR2 / RFU, WDSUB1 / Fold change vs veh, WDSUB1 / Fold change vs veh, HSP90B1 /// MIR3652 / RFU, ADSS / Fold change vs veh, ADSS / RFU, GK / Fold change vs veh, GK / RFU, ZNF148 / Fold change vs veh, ZNF148 / RFU, TAF9 / Fold change vs veh, TAF9 / RFU, SLC1A5 / Fold change vs veh, SLC1A5 / RFU, SLMO2 / Fold change vs veh, SLMO2 / RFU, ABCC4 / Fold change vs veh, ABCC4 / RFU, LOC101060439 /// RAP1B / Fold change vs veh, LOC101060439 /// RAP1B / RFU, RFX7 / Fold change vs veh, RFX7 / RFU, GTPBP10 / Fold change vs veh, GTPBP10 / RFU, CNEP1R1 / Fold change vs veh, CNEP1R1 / RFU, BIVM-ERCC5 /// ERCC5 / Fold change vs veh, BIVM-ERCC5 /// ERCC5 / RFU, ILF3 / Fold change vs veh, ILF3 / RFU 11762660_at / Fold change /veh 11762660_at / RFU VCAN (11757783_s_at) / Fold change /veh VCAN (11757783_s_at) / RFU DDX43 (11728927_at) / Fold change /veh DDX43 (11728927_at) / RFU KRT8 (11758188_x_at) / Fold change /veh KRT8 (11758188_x_at) / RFU NKD1 (11759106_at) / Fold change /veh NKD1 (11759106_at) / RFU SRD5A1 (11742802_a_at) / Fold change /veh SRD5A1 (11742802_a_at) / RFU TPSAB1 /// TPSB2 (11721975_s_at) / Fold change /veh TPSAB1 /// TPSB2 (11721975_s_at) / RFU GSTM3 (11746129_a_at) / Fold change /veh GSTM3 (11746129_a_at) / RFU IL23R (11737362_x_at) / Fold change /veh IL23R (11737362_x_at) / RFU TMEM51 (11727254_a_at) / Fold change /veh TMEM51 (11727254_a_at) / RFU PIWIL2 (11732686_x_at) / Fold change /veh PIWIL2 (11732686_x_at) / RFU ORM1 (11744905_x_at) / Fold change /veh ORM1 (11744905_x_at) / RFU CCDC152 (11743942_at) / Fold change /veh CCDC152 (11743942_at) / RFU ECM1 (11717891_a_at) / Fold change /veh ECM1 (11717891_a_at) / RFU IL23R (11748794_a_at) / Fold change /veh IL23R (11748794_a_at) / RFU TNFAIP8L3 (11732012_x_at) / Fold change /veh TNFAIP8L3 (11732012_x_at) / RFU MBOAT4 (11741988_at) / Fold change /veh MBOAT4 (11741988_at) / RFU 11764193_at / Fold change /veh 11764193_at / RFU TMEM53 (11763286_at) / Fold change /veh TMEM53 (11763286_at) / RFU MAGEB2 (11727129_at) / Fold change /veh MAGEB2 (11727129_at) / RFU TMEM200A (11744735_a_at) / Fold change /veh TMEM200A (11744735_a_at) / RFU CCDC152 (11751479_a_at) / Fold change /veh CCDC152 (11751479_a_at) / RFU FAM211A (11726209_a_at) / Fold change /veh FAM211A (11726209_a_at) / RFU RGS16 (11746705_a_at) / Fold change /veh RGS16 (11746705_a_at) / RFU VCAN (11755009_s_at) / Fold change /veh VCAN (11755009_s_at) / RFU RHOB (11743442_s_at) / Fold change /veh RHOB (11743442_s_at) / RFU RGS16 (11720943_a_at) / Fold change /veh RGS16 (11720943_a_at) / RFU RGS16 (11720944_at) / Fold change /veh RGS16 (11720944_at) / RFU, VPS4B / Fold change vs veh, VPS4B / RFU, CREB1 / Fold change vs veh, CREB1 / RFU, DNAJC13 / Fold change vs veh, DNAJC13 / RFU, GNAQ / Fold change vs veh, GNAQ / RFU, CDK5R1 / Fold change vs veh, CDK5R1 / RFU, ZRANB3 / Fold change vs veh, ZRANB3 / RFU, CUL4A / Fold change vs veh, CUL4A / RFU, CCNY / Fold change vs veh, CCNY / RFU, UFL1 / Fold change vs veh, UFL1 / RFU, COG3 / Fold change vs veh, COG3 / RFU, DIAPH2 / Fold change vs veh, DIAPH2 / RFU, SKA2 / Fold change vs veh, SKA2 / RFU, AFF3 / Fold change vs veh, AFF3 / RFU, LMF1 / Fold change vs veh, LMF1 / RFU, IPO11 / Fold change vs veh, IPO11 / RFU, DFFB / Fold change vs veh, DFFB / RFU, FOXP1 / Fold change vs veh, FOXP1 / RFU, CARD8 / Fold change vs veh, CARD8 / RFU, STRN3 / Fold change vs veh, STRN3 / RFU, ADK / Fold change vs veh, ADK / RFU, RASSF2 / Fold change vs veh, RASSF2 / RFU, WIPF1 / Fold change vs veh, WIPF1 / RFU, LARP1B / Fold change vs veh, LARP1B / RFU, RASA1 / Fold change vs veh, RASA1 / RFU, RB1 / Fold change vs veh, RB1 / RFU, PPFIA1 / Fold change vs veh, PPFIA1 / RFU, MAT2A / Fold change vs veh, MAT2A / RFU, CCT5 / Fold change vs veh, CCT5 / RFU, WDR92 / Fold change vs veh, WDR92 / RFU, CUX1 / Fold change vs veh, CUX1 / RFU, TTC7A / Fold change vs veh, TTC7A / RFU, TMEM135 / Fold change vs veh, TMEM135 / RFU, DEPTOR / Fold change vs veh, DEPTOR / RFU, CPM / Fold change vs veh, CPM / RFU, DNAJB6 / Fold change vs veh, DNAJB6 / RFU, CACNA2D3 / Fold change vs veh, CACNA2D3 / RFU, DTX4 / Fold change vs veh, DTX4 / RFU, TFCP2 / Fold change vs veh, TFCP2 / RFU, GMCL1 /// GMCL1P1 / Fold change vs veh, GMCL1 /// GMCL1P1 / RFU, AEBP2 / Fold change vs veh, AEBP2 / RFU, SNHG1 /// SNORD22 /// SNORD25 /// SNORD26 /// SNORD27 /// SNORD28 /// SNORD29 /// SNORD31 / Fold change vs veh, SNHG1 /// SNORD22 /// SNORD25 /// SNORD26 /// SNORD27 /// SNORD28 /// SNORD29 /// SNORD31 / Fold change (Aza/veh), C12orf56 (ProbeSet 11735607_a_at) / Fold change (ACY-1035/veh), C12orf56 (ProbeSet 11735607_a_at) / Fold change (Aza/veh), FGFR1OP (ProbeSet 11751329_s_at) / Fold change (ACY-1035/veh), FGFR1OP (ProbeSet 11751329_s_at) / Fold change (Aza/veh), VPS36 (ProbeSet 11739960_a_at) / Fold change (ACY-1035/veh), VPS36 (ProbeSet 11739960_a_at) / RFU SYPL1 (11715823_x_at) / Fold change /veh SYPL1 (11715823_x_at) / RFU IGFBP7 (11715501_s_at) / Fold change /veh IGFBP7 (11715501_s_at) / RFU REEP3 (11722064_at) / Fold change /veh REEP3 (11722064_at) / RFU IGLL1 (11728026_x_at) / Fold change /veh IGLL1 (11728026_x_at): dose or concentration left out as unconfirmed
Conditions: MV-4-11 cells, 48 hours

Nc1ncn([C@@H]2O[C@H](CO)[C@@H](O)[C@H]2O)c(=O)n1 [azacitidine]
Fold change /veh ABCC12 (11746883_a_at): 0.93
